Data published in patent publication US11254688B2 (Boehringer Ingelheim International GmbH, priority 2018, dated 2022).

biological target: T1, hGOAT (Homo sapiens, UniProt Q96T53); assay: Determination of hGOAT activity in HEK293 cells after incubation with test compound (acyl-ghrelin ELISA); assay type: cell-based; conditions: HEK293 cells stably transfected with preproghrelin and human GOAT; octanoate-BSA 100 μM; 5 hours incubation; acyl-ghrelin in medium by ELISA; 8 compound concentrations
T1 construct: expressed in transfected cells; host or cells: HEK293 (Hek293 hGOAT/PPGhrl Clone #1B8)
T1 sequence (Q96T53 1-435): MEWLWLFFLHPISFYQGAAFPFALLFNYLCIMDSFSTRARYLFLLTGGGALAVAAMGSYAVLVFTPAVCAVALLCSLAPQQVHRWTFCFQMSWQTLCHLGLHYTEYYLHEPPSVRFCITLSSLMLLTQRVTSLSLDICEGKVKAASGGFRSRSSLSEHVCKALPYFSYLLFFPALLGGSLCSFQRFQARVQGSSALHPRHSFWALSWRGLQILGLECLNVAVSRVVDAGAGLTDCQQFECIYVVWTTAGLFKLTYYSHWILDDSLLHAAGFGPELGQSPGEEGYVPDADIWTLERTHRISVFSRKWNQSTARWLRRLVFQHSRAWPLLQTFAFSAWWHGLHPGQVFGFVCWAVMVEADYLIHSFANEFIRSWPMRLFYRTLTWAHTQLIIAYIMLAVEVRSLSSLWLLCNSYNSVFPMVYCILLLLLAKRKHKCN
Experimental: Determination of hGOAT Activity in HEK293 Cells after Incubation with Test Compound
HEK293 cells stably transfected with two expression vectors, one coding for preproghrelin cDNA and a second for the expression of human GOATcDNA are used as a cellular model. After feeding the cells with octanoic acid for 5 hours, acyl-ghrelin is measured in cell culture medium by an ELISA procedure.
Cellline: Hek293 hGOAT/PPGhrl Clone #1B8Sodium octanoate, Sigma, Cat.-No. C5038
BD Poly-D-Lysin 384-well Plates, black-clear polystyrene BD Bioscience Cat.-No. […] ELISA human acylated Ghrelin Kit purchased from Bertin Pharman (detailed composition of buffers e.g. wash-puffer, ELISA buffer not known)
Cells are plated with a density of 5000 cells/well in 384-well poly-D-lysin plates and incubated for 1 day at 37° C., 5% CO2 in DMEM medium, 10% FCS, 1×NEAA, Puromycin (0.5 μg/ml) and G418 (1 mg/ml). Then the medium is changed to a identical medium without FCS and containing Octanoate-BSA (final concentration 100 μM each) and compound in DMSO (final DMSO concentration 0,3%). After incubation for 5 hours acylghrelin in the medium is measured by ELISA.
The medium sample is diluted 1:25 in Elisa buffer, a 25 μl aliquot is transferred to a 384-well ELISA plate previously washed 4 times with 100 μL wash buffer, and 25 μl tracer-solution is added. After incubation overnight (˜20 h) at 4° C. temperature the plate is washed 4 times with 100 μl wash-buffer per well. Finally 50 μl Ellman's reagent is added to each well and the plate is incubated in the dark for 20 minutes. The absorbance is measured at 405 nm in an Envision multilabel reader and the amount of acylated ghrelin is calculated according to a acylated ghrelin standard curve provided in the same plate.
The analysis of the data is performed by calculation of the percentage of acyl-ghrelin produced in the presence of test compound compared to the amount of acyl-ghrelin produced in the vehicle control samples. An inhibitor of the GOAT enzyme will give values between 100% CTL (no inhibition) and 0% CTL (complete inhibition).
IC50 values are calculated with Assay Explorer or other suited software based on curve fitting of results of 8 different compound concentrations.

Row | IC50 [nM] | Structure (SMILES)
1 | 4.16 | Cc1nc2nonc2c(N)c1Cc1ccc(C(=O)NCc2cnn(C)c2)cc1 [Compound 14.11, 4-({7-Amino-5-methyl-[1,2,5]oxadiazolo[3,4-b]pyridin-6-yl}methyl)-N-[(1-methyl-1H-pyrazol-4-yl)methyl]benzamide]
2 | 0.534 | Cc1nc2nonc2c(N)c1Cc1ccc(C(C)(C)C(=O)O)nc1 [Compound 19.4, 2-[5-({7-Amino-5-methyl-[1,2,5]oxadiazolo[3,4-b]pyridin-6-yl}methyl)pyridin-2-yl]-2-methylpropanoic Acid]
3 | 1.52 | Cc1nc2nonc2c(N)c1Cc1ccc(-c2cscc2C#N)nc1 [Compound 12.4, 4-[5-(7-Amino-5-methyl-[1,2,5]oxadiazolo[3,4-b]pyridin-6-ylmethyl)-pyridin-2-yl]-thiophene-3-carbonitrile]
4 | 6.27 | Cc1nc2nonc2c(N)c1Cc1ccnc(Cl)c1 [Compound 4.55, 6-[(2-Chloropyridin-4-yl)methyl]-5-methyl-[1,2,5]oxadiazolo[3,4-b]pyridin-7-amine]
5 | 0.174 | CSc1ccc(Cc2c(C)nc3nonc3c2N)cc1 [Compound 4.19, 5-Methyl-6-{[4-(methylsulfanyl)phenyl]methyl}-[1,2,5]oxadiazolo[3,4-b]pyridin-7-amine]
6 | 0.294 | Cc1nc2nonc2c(N)c1Cc1ccc(C(F)(F)F)cc1 [Compound 1.3, 5-Methyl-6-{[4-(trifluoromethyl)phenyl]methyl}-[1,2,5]oxadiazolo[3,4-b]pyridin-7-amine]
7 | 0.485 | Nc1c(Cc2ccc(Br)cc2)c(Cl)nc2nonc12 [Compound 23.1, 6-[(4-Bromophenyl)methyl]-5-chloro-[1,2,5]oxadiazolo[3,4-b]pyridin-7-amine]
8 | 0.278 | Cc1nc2nonc2c(N)c1Cc1ccc(C#N)c(OCC2(C(F)(F)F)CC2)c1 [Compound 21.7, 4-({7-Amino-5-methyl-[1,2,5]oxadiazolo[3,4-b]pyridin-6-yl}methyl)-2-{[1-(trifluoromethyl)cyclopropyl]methoxy}benzonitrile]
9 | 0.052 | Cc1nc2nonc2c(N)c1Cc1ccc(OC(F)(F)F)cc1F [Compound 4.46, 6-(2-Fluoro-4-trifluoromethoxy-benzyl)-5-methyl-[1,2,5]oxadiazolo[3,4-b]pyridin-7-ylamine]
10 | 0.387 | Cc1nc2nonc2c(N)c1Cc1ccc(OC(F)(F)F)cc1 [Compound 1.2, 5-Methyl-6-{[4-(trifluoromethoxy)phenyl]methyl}-[1,2,5]oxadiazolo[3,4-b]pyridin-7-amine]
11 | 3 | Cc1nc2nonc2c(N)c1Cc1ccnc(OC(F)F)c1 [Compound 4.48, 6-(2-Difluoromethoxy-pyridin-4-ylmethyl)-5-methyl-[1,2,5]oxadiazolo[3,4-b]pyridin-7-ylamine]
12 | 7.97 | Cc1nc2nonc2c(N)c1Cc1ccc(C(F)(F)F)c(C(N)=O)c1 [Compound 19.7, 5-({7-Amino-5-methyl-[1,2,5]oxadiazolo[3,4-b]pyridin-6-yl}methyl)-2-(trifluoromethyl) benzamide]
13 | 1.41 | Cc1nc2nonc2c(N)c1Cc1ccc(C2(C#N)CC2)nc1 [Compound 4.8, 1-[5-({7-Amino-5-methyl-[1,2,5]oxadiazolo[3,4-b]pyridin-6-yl}methyl)pyridin-2-yl]cyclopropane-1-carbonitrile]
14 | 1.65 | Cc1nc2nonc2c(N)c1Cc1ccc(C2(C#N)CCOCC2)nc1 [Compound 4.27, 4-[5-({7-Amino-5-methyl-[1,2,5]oxadiazolo[3,4-b]pyridin-6-yl}methyl)pyridin-2-yl]oxane-4-carbonitrile]
15 | 0.081 | CCC(C#N)(CC)c1ccc(Cc2c(C)nc3nonc3c2N)cn1 [Compound 4.25, 2-[5-({7-Amino-5-methyl-[1,2,5]oxadiazolo[3,4-b]pyridin-6-yl}methyl)pyridin-2-yl]-2-ethylbutanenitrile]
16 | 2.06 | Cc1nc2nonc2c(N)c1Cc1ccc(F)c(C(N)=O)c1 [Compound 19.6, 5-({7-Amino-5-methyl-[1,2,5]oxadiazolo[3,4-b]pyridin-6-yl}methyl)-2-fluorobenzamide]
17 | 0.495 | Cc1nc2nonc2c(N)c1Cc1cccc(OC(F)F)c1 [Compound 4.54, 6-{[3-(Difluoromethoxy)phenyl]methyl}-5-methyl-[1,2,5]oxadiazolo[3,4-b]pyridin-7-amine]
18 | 2.49 | Cc1nc2nonc2c(N)c1C(=O)c1ccc(OC(F)(F)F)cc1 [Compound 22.2, 5-Methyl-6-[4-(trifluoromethoxy)benzoyl]-[1,2,5]oxadiazolo[3,4-b]pyridin-7-amine]
19 | 2.79 | Cc1nc2nonc2c(N)c1Cc1ccc(-c2ccnn2C)n2cnnc12 [Compound 12.13, 5-Methyl-6-[5-(2-methyl-2H-pyrazol-3-yl)-[1,2,4]triazolo[4,3-a]pyridin-8-ylmethyl]-[1,2,5]oxadiazolo[3,4-b]pyridin-7-ylamine]
20 | 1.59 | Cc1nc2nonc2c(N)c1Cc1cc(F)c(F)c(F)c1 [Compound 4.52, 5-Methyl-6-[(3,4,5-trifluorophenyl)methyl]-[1,2,5]oxadiazolo[3,4-b]pyridin-7-amine]
21 | 3.41 | Cc1nc2nonc2c(N)c1Cc1ccn2ncnc2c1 [Compound 4.21, 5-Methyl-6-({[1,2,4]triazolo[1,5-a]pyridin-7-yl}methyl)-[1,2,5]oxadiazolo[3,4-b]pyridin-7-amine]
22 | 35.7 | Cc1nc2nonc2c(N)c1Cc1cnc(OC(F)F)c(C#N)c1 [Compound 4.49, 5-({7-Amino-5-methyl-[1,2,5]oxadiazolo[3,4-b]pyridin-6-yl}methyl)-2-(difluoromethoxy)pyridine-3-carbonitrile]
23 | 0.353 | Cc1nc2nonc2c(N)c1Cc1ccc(F)cc1F [Compound 2.7, 6-[(2,4-Difluorophenyl)methyl]-5-methyl-[1,2,5]oxadiazolo[3,4-b]pyridin-7-amine]
24 | 2.21 | Cc1nc2nonc2c(N)c1Cc1ccnc(C(F)(F)F)c1 [Compound 4.40, 5-Methyl-6-{[2-(trifluoromethyl)pyridin-4-yl]methyl}-[1,2,5]oxadiazolo[3,4-b]pyridin-7-amine]
25 | 0.114 | Cc1nc2nonc2c(N)c1Cc1ccc(OC(F)F)cc1 [Compound 4.33, 6-{[4-(Difluoromethoxy)phenyl]methyl}-5-methyl-[1,2,5]oxadiazolo[3,4-b]pyridin-7-amine]
26 | 5.12 | Cc1nc2nonc2c(N)c1Cc1ccc(C(=O)NCC(C)O)cc1 (stereo not drawn) [Compound 14.15, 4-({7-Amino-5-methyl-[1,2,5]oxadiazolo[3,4-b]pyridin-6-yl}methyl)-N-(2-hydroxypropyl)benzamide]
27 | 5.36 | Cc1nc2nonc2c(N)c1Cc1cccn2c(C(F)(F)F)nnc12 [Compound 4.10]
28 | 0.665 | Cc1nc2nonc2c(N)c1Cc1ccc(C(=O)N(C)C)cc1 [Compound 14.2, 4-({7-Amino-5-methyl-[1,2,5]oxadiazolo[3,4-b]pyridin-6-yl}methyl)-N,N-dimethylbenzamide]
29 | 0.494 | Cc1nc2nonc2c(N)c1Cc1ccc(F)c(F)c1 [Compound 4.0, 6-[(3,4-Difluorophenyl)methyl]-5-methyl-[1,2,5]oxadiazolo[3,4-b]pyridin-7-amine]
30 | 0.06 | COc1cc(Br)ccc1Cc1c(C)nc2nonc2c1N [Compound 2.3, 6-[(4-Bromo-2-methoxyphenyl)methyl]-5-methyl-[1,2,5]oxadiazolo[3,4-b]pyridin-7-amine]
